# Results reported in patent US10231954B2, “Neurodegenerative therapies” (LYTIX BIOPHARMA AS, priority 2014, dated 2019).
# How the values were obtained:
# Assay type in all cases: biochemical
# NEK6 = NEK6 (Homo sapiens, UniProt Q9HC98); experiment: Kinase profiling NEK6; conditions: 100 micromolar inhibitor concentration, 100 is no change
# From the text: (§1) Any value less that 25 is considered to be highly significant inhibition.
# TAK1 = target: T1, TAK1 (Homo sapiens, UniProt O43318); experiment: Kinase profiling TAK1; conditions: 100 micromolar inhibitor concentration, 100 is no change
# T1 sequence (O43318 1-303 limits assumed): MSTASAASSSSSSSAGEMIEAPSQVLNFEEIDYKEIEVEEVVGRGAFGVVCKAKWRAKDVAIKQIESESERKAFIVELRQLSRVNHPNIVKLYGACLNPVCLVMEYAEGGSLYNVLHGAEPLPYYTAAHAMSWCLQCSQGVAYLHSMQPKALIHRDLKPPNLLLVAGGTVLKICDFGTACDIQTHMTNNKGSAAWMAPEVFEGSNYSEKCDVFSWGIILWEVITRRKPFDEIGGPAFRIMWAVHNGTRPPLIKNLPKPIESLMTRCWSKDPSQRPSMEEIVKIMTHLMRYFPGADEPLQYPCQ
# T1 sequence (Q15750 437-504 partner limits assumed): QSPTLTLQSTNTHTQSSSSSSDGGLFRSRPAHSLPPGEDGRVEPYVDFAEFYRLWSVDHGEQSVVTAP
# From the text: as §1
# RSK1 = RSK1 (Homo sapiens, UniProt Q15418); experiment: Kinase profiling RSK1; conditions: 100 micromolar inhibitor concentration, 100 is no change
# From the text: as §1
# SYK = SYK (Homo sapiens, UniProt P43405); experiment: Kinase profiling SYK; conditions: 100 micromolar inhibitor concentration, 100 is no change
# From the text: as §1
# MST2 = target: T2, MST2 (Homo sapiens, UniProt Q13188); experiment: Kinase profiling MST2; conditions: 100 micromolar inhibitor concentration, 100 is no change
# T2 sequence (Q13188 1-491): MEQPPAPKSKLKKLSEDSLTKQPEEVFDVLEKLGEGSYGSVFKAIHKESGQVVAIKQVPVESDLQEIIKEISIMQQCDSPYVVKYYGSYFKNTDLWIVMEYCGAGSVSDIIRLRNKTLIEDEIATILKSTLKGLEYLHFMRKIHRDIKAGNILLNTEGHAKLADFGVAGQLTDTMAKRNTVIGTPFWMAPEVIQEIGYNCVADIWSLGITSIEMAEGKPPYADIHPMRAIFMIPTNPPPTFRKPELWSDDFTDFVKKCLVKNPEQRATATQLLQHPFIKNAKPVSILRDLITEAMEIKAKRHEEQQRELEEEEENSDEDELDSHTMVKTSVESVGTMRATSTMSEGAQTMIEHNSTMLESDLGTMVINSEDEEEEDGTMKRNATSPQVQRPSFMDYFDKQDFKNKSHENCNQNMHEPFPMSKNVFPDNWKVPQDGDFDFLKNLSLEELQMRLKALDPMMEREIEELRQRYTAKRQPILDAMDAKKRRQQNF
# From the text: as §1
# MLK3 = MLK3 (Homo sapiens, UniProt Q16584); experiment: Kinase profiling MLK3; conditions: 100 micromolar inhibitor concentration, 100 is no change
# From the text: as §1
# PKBb = PKBb (Homo sapiens, UniProt P31751); experiment: Kinase profiling PKBb; conditions: for residual kinase activity, PKBb: 100 micromolar inhibitor concentration, 100 is no change
# From the text: as §1
# ERK2 = ERK2 (Homo sapiens, UniProt P28482); experiment: Kinase profiling ERK2; conditions: 100 micromolar inhibitor concentration, 100 is no change
# From the text: as §1
# HER4 = HER4 (Homo sapiens, UniProt Q15303); experiment: Kinase profiling HER4; conditions: 100 micromolar inhibitor concentration, 100 is no change
# From the text: as §1
# CHK2 = CHK2 (Homo sapiens, UniProt O96017); experiment: Kinase profiling CHK2; conditions: 100 micromolar inhibitor concentration, 100 is no change
# From the text: as §1
# PKCz = target: T3, PKCz (Homo sapiens, UniProt Q05513); experiment: Kinase profiling PKCz; conditions: 100 micromolar inhibitor concentration, 100 is no change
# T3 sequence (Q05513 1-592): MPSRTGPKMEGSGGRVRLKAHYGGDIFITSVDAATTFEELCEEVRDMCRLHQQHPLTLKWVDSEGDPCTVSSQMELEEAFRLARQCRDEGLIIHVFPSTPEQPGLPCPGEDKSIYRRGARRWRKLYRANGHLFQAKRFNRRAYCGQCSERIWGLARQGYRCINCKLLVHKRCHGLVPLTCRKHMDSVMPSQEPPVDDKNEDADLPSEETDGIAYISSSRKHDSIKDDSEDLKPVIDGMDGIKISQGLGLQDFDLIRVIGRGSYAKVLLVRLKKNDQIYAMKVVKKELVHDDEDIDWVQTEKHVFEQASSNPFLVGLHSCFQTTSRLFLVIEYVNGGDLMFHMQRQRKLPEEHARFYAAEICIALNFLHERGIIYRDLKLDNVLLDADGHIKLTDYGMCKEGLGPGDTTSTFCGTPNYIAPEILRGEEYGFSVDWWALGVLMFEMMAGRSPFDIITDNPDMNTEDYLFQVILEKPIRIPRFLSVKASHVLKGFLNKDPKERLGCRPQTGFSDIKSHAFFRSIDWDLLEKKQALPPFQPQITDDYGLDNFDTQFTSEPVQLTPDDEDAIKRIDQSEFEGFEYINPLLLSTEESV
# From the text: as §1
# PIM1 = PIM1 (Homo sapiens, UniProt P11309); experiment: Kinase profiling PIM1; conditions: 100 micromolar inhibitor concentration, 100 is no change
# From the text: as §1
# EF2K = EF2K (Homo sapiens, UniProt O00418); experiment: Kinase profiling EF2K; conditions: 100 micromolar inhibitor concentration, 100 is no change
# From the text: as §1
# RSK2 = RSK2 (Homo sapiens, UniProt P51812); experiment: Kinase profiling RSK2; conditions: 100 micromolar inhibitor concentration, 100 is no change
# From the text: as §1
# Chain of PKBb (P31751 whole entry): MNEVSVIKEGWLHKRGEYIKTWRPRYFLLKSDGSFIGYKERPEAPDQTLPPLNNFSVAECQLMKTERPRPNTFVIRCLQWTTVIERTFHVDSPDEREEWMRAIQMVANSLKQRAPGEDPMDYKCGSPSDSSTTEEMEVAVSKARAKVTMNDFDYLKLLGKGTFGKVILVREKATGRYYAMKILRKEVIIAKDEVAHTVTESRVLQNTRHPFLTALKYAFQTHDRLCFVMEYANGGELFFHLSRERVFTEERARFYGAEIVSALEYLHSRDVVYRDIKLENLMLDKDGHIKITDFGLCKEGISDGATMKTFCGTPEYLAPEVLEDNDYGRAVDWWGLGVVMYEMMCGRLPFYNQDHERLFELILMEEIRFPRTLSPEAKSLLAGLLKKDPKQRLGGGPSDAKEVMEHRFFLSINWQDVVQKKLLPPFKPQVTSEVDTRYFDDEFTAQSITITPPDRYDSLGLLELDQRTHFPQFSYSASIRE
# Chain of CHK2 (O96017 whole entry, species assumed): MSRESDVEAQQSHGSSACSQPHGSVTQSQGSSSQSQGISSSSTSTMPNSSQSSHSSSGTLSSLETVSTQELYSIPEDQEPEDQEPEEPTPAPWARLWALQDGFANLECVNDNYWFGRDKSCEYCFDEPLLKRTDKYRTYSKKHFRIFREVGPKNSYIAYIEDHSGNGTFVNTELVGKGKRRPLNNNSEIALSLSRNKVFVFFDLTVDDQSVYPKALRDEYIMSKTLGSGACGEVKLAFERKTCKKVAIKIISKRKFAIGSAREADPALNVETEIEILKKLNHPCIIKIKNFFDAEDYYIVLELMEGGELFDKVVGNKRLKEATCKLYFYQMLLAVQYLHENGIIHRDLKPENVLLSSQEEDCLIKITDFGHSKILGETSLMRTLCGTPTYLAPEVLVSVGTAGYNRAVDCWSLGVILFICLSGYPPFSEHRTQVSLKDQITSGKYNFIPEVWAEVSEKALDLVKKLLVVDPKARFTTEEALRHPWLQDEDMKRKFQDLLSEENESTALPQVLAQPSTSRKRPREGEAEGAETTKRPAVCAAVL
# Chain of HER4 (Q15303 26-1308, species assumed): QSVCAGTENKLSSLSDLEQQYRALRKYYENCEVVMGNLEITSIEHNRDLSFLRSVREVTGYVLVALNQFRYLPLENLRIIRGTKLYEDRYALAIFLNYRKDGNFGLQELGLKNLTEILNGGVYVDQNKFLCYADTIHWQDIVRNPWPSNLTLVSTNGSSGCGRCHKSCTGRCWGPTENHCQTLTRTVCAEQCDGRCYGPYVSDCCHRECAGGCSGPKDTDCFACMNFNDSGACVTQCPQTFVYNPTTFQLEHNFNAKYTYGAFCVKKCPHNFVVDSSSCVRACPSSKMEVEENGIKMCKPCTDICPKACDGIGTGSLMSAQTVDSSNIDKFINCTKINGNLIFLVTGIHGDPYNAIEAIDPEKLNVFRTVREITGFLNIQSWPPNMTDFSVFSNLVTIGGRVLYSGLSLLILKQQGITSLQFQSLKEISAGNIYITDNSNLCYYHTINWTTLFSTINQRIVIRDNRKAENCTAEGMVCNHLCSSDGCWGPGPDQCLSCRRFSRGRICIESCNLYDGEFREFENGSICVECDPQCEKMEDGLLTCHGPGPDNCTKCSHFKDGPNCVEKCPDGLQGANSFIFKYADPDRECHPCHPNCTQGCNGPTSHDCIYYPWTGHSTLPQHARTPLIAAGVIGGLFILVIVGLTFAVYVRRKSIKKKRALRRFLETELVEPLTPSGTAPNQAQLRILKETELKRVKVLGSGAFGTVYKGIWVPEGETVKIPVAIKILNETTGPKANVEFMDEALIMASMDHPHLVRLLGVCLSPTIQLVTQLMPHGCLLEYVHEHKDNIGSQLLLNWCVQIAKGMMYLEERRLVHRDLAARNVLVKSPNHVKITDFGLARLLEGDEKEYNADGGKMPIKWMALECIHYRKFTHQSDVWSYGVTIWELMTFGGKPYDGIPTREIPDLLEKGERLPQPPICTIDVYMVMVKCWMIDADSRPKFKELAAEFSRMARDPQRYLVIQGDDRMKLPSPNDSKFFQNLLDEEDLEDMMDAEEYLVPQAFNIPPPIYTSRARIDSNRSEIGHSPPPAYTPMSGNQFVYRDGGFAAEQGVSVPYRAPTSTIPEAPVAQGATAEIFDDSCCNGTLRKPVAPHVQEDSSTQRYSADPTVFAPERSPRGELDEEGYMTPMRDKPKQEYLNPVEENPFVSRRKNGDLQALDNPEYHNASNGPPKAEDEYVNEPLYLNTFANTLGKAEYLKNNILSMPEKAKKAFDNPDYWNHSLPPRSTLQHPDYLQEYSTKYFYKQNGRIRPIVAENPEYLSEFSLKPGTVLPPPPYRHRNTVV
# Chain of NEK6 (Q9HC98 whole entry, species assumed): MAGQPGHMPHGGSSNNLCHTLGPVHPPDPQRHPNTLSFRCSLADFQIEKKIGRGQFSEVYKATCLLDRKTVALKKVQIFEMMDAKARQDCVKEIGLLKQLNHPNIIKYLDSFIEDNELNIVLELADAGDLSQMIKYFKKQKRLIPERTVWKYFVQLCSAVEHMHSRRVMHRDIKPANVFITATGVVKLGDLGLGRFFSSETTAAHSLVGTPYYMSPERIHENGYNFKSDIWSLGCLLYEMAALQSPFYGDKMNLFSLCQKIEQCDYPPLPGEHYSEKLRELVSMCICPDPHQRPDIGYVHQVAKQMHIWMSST
# Chain of PIM1 (P11309 whole entry, species assumed): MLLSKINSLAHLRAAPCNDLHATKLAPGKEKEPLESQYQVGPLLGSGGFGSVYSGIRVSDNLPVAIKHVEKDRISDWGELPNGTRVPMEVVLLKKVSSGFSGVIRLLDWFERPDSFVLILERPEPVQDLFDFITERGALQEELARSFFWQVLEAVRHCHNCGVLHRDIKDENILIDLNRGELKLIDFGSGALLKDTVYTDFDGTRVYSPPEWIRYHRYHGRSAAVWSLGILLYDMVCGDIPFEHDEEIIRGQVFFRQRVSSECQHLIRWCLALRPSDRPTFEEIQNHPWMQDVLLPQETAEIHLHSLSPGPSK
# Chain of RSK2 (P51812 whole entry, species assumed): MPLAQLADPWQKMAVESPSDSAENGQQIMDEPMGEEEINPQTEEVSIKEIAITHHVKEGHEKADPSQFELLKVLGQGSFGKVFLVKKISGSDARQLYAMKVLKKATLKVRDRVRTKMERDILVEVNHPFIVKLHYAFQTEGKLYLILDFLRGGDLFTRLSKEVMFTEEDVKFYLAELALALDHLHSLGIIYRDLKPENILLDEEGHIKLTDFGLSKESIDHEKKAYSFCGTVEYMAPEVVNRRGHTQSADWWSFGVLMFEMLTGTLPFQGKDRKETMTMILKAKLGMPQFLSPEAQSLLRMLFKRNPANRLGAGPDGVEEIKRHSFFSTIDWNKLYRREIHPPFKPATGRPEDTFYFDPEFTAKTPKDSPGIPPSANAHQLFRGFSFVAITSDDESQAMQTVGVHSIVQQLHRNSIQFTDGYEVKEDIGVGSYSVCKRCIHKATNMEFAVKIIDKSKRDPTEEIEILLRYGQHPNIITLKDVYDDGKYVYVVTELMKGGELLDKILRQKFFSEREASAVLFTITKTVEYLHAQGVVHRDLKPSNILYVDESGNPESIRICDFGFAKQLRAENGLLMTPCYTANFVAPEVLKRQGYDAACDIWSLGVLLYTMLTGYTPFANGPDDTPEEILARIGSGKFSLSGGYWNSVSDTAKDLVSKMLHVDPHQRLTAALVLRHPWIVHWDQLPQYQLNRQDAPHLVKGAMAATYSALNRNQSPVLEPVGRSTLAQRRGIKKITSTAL
# Chain of RSK1 (Q15418 whole entry, species assumed): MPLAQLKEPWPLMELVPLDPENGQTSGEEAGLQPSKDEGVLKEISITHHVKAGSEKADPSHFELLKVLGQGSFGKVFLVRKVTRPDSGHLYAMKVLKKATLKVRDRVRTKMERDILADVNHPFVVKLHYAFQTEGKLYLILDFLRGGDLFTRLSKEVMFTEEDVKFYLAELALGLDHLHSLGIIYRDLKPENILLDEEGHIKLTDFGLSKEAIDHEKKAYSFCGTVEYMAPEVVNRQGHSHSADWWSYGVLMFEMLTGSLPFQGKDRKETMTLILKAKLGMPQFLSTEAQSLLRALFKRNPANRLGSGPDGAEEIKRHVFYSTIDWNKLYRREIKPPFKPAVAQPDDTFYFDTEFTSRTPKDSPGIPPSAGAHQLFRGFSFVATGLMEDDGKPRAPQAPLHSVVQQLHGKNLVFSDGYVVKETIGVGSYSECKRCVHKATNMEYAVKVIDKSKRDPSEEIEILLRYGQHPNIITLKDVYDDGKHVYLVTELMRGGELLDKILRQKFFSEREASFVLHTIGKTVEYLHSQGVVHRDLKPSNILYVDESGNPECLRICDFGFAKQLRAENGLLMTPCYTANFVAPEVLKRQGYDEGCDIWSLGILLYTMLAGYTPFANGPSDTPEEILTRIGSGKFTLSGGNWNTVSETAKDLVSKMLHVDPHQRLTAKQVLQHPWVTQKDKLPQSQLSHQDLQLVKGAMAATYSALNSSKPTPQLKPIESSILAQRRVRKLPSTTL
# Chain of ERK2 (P28482 whole entry, species assumed): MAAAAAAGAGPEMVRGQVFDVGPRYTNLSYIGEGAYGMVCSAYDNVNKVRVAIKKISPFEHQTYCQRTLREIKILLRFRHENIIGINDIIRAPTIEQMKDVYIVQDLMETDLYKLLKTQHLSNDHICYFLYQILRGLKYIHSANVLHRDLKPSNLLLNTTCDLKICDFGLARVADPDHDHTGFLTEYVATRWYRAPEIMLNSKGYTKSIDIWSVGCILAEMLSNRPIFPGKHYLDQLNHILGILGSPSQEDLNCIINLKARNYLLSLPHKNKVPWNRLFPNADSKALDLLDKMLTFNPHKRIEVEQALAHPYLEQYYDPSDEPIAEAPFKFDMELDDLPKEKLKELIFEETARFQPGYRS
SMILES,"residual kinase activity, NEK6 (NEK6)","residual kinase activity, TAK1 (TAK1)","residual kinase activity, RSK1 (RSK1)","residual kinase activity, SYK (SYK)","residual kinase activity, MST2 (MST2)","residual kinase activity, MLK3 (MLK3)","residual kinase activity, PKBb (PKBb)","residual kinase activity, ERK2 (ERK2)","residual kinase activity, HER4 (HER4)","residual kinase activity, CHK2 (CHK2)","residual kinase activity, PKCz (PKCz)","residual kinase activity, PIM1 (PIM1)","residual kinase activity, EF2K (EF2K)","residual kinase activity, RSK2 (RSK2)",also measured
CC(=O)Nc1nc2ccccc2s1 [Compound 03-32],92,76,86,116,88,71,112,149,78,87,126,79,89,105,
CC(=O)Nc1nc2cc(F)ccc2s1 [Compound 03-77],,,,,,,,,,,,,,,"remaining activity at 100 µM (NEK6; read-out: residual kinase activity, NEK6): 96%; remaining activity at 100 µM (TAK1; read-out: residual kinase activity, TAK1): 46%; remaining activity at 100 µM (RSK1; read-out: residual kinase activity, RSK1): 72%; remaining activity at 100 µM (SYK; read-out: residual kinase activity, SYK): 82%; remaining activity at 100 µM (MST2; read-out: residual kinase activity, MST2): 80%; remaining activity at 100 µM (MLK3; read-out: residual kinase activity, MLK3): 44%; remaining activity at 100 µM (PKBb; read-out: residual kinase activity, PKBb): 93%; remaining activity at 100 µM (ERK2; read-out: residual kinase activity, ERK2): 99%; remaining activity at 100 µM (HER4; read-out: residual kinase activity, HER4): 92%; remaining activity at 100 µM (CHK2; read-out: residual kinase activity, CHK2): 63%; remaining activity at 100 µM (PKCz; read-out: residual kinase activity, PKCz): 110%; remaining activity at 100 µM (PIM1; read-out: residual kinase activity, PIM1): 19%; remaining activity at 100 µM (EF2K; read-out: residual kinase activity, EF2K): 99%; remaining activity at 100 µM (RSK2; read-out: residual kinase activity, RSK2): 83%"
O=C(Nc1nc2cc(O)ccc2s1)c1cccnc1 [Compound 03-33],107,73,73,86,73,48,93,107,48,46,105,25,106,85,
